Consider 28 compounds from patent US9708316B2 (BRISTOL-MYERS SQUIBB COMPANY, priority 2014, dated 2017).

One assay has as its target T1, HIS-TGFβR1 T204D (Homo sapiens, UniProt P36897, T204D).
T1 sequence (P36897 34-503 T204D): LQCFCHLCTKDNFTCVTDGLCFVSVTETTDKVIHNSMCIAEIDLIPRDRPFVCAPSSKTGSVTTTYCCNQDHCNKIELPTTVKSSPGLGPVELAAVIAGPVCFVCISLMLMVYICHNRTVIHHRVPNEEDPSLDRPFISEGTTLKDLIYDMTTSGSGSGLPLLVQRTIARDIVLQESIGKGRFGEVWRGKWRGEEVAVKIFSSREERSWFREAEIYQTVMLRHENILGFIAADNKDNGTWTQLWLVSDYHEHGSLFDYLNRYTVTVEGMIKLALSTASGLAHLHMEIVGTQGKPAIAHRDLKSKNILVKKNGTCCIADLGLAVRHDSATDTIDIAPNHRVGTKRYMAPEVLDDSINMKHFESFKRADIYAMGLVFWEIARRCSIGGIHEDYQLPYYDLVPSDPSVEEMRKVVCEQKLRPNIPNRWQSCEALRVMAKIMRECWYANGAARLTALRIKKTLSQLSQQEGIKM
The assay can be described thus: HTRF probe-displacement assay, HIS-TGFβR1 T204D. Format: binding. To be noted: read-out: TGFβR1 (μM) IC50. (In general: In TR-FRET formats the signal depends on donor and acceptor labels being close together.)

In a further assay the target is HIS-TGFβR2 WT (Homo sapiens, UniProt P37173). The assay can be described thus: HTRF probe-displacement assay, HIS-TGFβR2 WT. Format: binding.
Sequence of HIS-TGFβR2 WT (P37173 23-567): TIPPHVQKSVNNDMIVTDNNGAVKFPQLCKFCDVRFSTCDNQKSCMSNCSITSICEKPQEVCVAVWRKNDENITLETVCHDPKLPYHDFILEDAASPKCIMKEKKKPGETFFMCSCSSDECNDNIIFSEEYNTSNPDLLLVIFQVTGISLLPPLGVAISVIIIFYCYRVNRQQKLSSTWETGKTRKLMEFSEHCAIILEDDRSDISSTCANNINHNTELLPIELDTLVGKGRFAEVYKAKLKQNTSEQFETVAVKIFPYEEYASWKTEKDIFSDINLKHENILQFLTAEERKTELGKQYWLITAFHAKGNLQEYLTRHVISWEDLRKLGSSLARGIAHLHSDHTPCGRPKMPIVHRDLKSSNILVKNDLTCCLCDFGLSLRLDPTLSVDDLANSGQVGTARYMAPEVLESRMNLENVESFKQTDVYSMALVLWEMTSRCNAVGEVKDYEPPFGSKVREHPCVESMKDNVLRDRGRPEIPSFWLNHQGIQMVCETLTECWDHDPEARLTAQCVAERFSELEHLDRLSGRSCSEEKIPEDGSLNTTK

Broadly, the IC50 is the concentration that gives 50% inhibition. For `COc1cccc(-c2c(-c3ccnc(NC(C)=O)c3)[nH]c3cc(Cl)cnc23)n1` [Example 65, N-{4-[6-Chloro-3-(6-methoxypyridin-2-yl)-1H-pyrrolo[3,2-b]pyridin-2-yl]pyridin-2-yl}acetamide], the IC50 on HIS-TGFβR1 T204D is 0.01 µM; at HIS-TGFβR2 WT, greater than 15 µM.
The corresponding values for `COc1ccc(-c2c(-c3ccnc(NC(C)=O)c3)[nH]c3c(OC)ccnc23)cn1` [Example 269, N-(4-(7-Methoxy-3-(6-methoxypyridin-3-yl)-1H-pyrrolo[3,2-b]pyridin-2-yl)pyridin-2-yl)acetamide] are 0.067 µM and 1.04 µM.
The corresponding values for `COc1cnc2c(-c3ccc(OC(F)F)cn3)c(-c3ccnc(NC(C)=O)c3)[nH]c2c1` [Example 113, N-(4-(3-(5-(Difluoromethoxy)pyridin-2-yl)-6-methoxy-1H-pyrrolo[3,2-b]pyridin-2-yl)pyridin-2-yl)acetamide] are 0.003 µM and 14.6 µM.
For the compound `COc1ccc(-c2c(-c3ccnc(NC(C)=O)c3)[nH]c3cc(N4CCC(NC(C)=O)CC4)cnc23)nc1` [Example 159, N-(4-(6-(4-Acetamidopiperidin-1-yl)-3-(5-methoxypyridin-2-yl)-1H-pyrrolo[3,2-b]pyridin-2-yl)pyridin-2-yl)acetamide], the IC50 is 0.0311 µM at HIS-TGFβR1 T204D and greater than 15 µM at HIS-TGFβR2 WT.
Take `CCOc1ccc(-c2c(-c3ccnc(NC(C)=O)c3)[nH]c3cc(Cl)cnc23)cn1` [Example 258, N-(4-(6-Chloro-3-(6-ethoxypyridin-3-yl)-1H-pyrrolo[3,2-b]pyridin-2-yl)pyridin-2-yl)acetamide]: the figures for the IC50 at HIS-TGFβR1 T204D and at HIS-TGFβR2 WT were 0.002 µM and 6.29 µM, respectively.
Take `COc1cnc2c(-c3cccc(C(F)F)n3)c(-c3ccnc(NC(=O)CN(C)C)c3)[nH]c2c1` [Example 117, N-(4-{3-[6-(Difluoromethyl)pyridin-2-yl]-6-methoxy-1H-pyrrolo[3,2-b]pyridin-2-yl}pyridin-2-yl)-2-(dimethylamino)acetamide]: the IC50 was determined as 0.003 µM at HIS-TGFβR1 T204D and 11.3 µM on HIS-TGFβR2 WT.
The corresponding values for `CC(=O)Nc1cc(-c2[nH]c3cccnc3c2-c2cccc(F)n2)ccn1` [Example 16, N-{4-[3-(6-Fluoropyridin-2-yl)-1H-pyrrolo[3,2-b]pyridin-2-yl]pyridin-2-yl}acetamide] are 0.002 µM and 0.087 µM.
As for `COc1ccc(-c2c(-c3ccnc(NC(C)=O)c3)[nH]c3cc(C(O)C(F)(F)F)cnc23)nc1` (centres unmarked) [Example 297, N-(4-(3-(5-Methoxypyridin-2-yl)-6-(2,2,2-trifluoro-1-hydroxyethyl)-1H-pyrrolo[3,2-b]pyridin-2-yl)pyridin-2-yl)acetamide], the values for the IC50 at HIS-TGFβR1 T204D and at HIS-TGFβR2 WT were 0.004 µM and 4.33 µM, respectively.
With `CC(=O)Nc1cc(-c2[nH]c3cc(Cl)cnc3c2-c2cccc(CO)n2)ccn1` [Example 67, N-(4-{6-Chloro-3-[6-(hydroxymethyl)pyridin-2-yl]-1H-pyrrolo[3,2-b]pyridin-2-yl}pyridin-2-yl)acetamide], the results for the IC50 at HIS-TGFβR1 T204D and on HIS-TGFβR2 WT were 0.037 µM and 0.36 µM, respectively.
In the case of `COc1ccc(-c2c(-c3ccnc(NC(C)=O)c3)[nH]c3c(C(C)(C)O)ccnc23)cn1` [Example 299, N-(4-(7-(2-Hydroxypropan-2-yl)-3-(6-methoxypyridin-3-yl)-1H-pyrrolo[3,2-b]pyridin-2-yl)pyridin-2-yl)acetamide], the IC50 at HIS-TGFβR1 T204D was found to be 0.002 µM; on HIS-TGFβR2 WT, 0.038 µM.
The corresponding values for `CC(=O)Nc1cc(-c2[nH]c3c([C@H](C)O)ccnc3c2-c2cccc(C(F)F)n2)ccn1` (single isomer, unassigned) [Example 147] are 0.002 µM and 0.75 µM.
The corresponding values for `COc1cnc(-c2c(-c3ccnc(NC(C)=O)c3)[nH]c3cccnc23)cn1` [Example 194, N-(4-(3-(5-Methoxypyrazin-2-yl)-1H-pyrrolo[3,2-b]pyridin-2-yl)pyridin-2-yl)acetamide] are 0.005 µM and 4.31 µM.
On to `CC(=O)Nc1cc(-c2[nH]c3c(Cl)ccnc3c2-c2ccc(Cl)cn2)ccn1` [Example 63, N-{4-[7-Chloro-3-(5-chloropyridin-2-yl)-1H-pyrrolo[3,2-b]pyridin-2-yl]pyridin-2-yl}acetamide], for which the results for the concentration for half-maximal inhibition (IC50) on HIS-TGFβR1 T204D and on HIS-TGFβR2 WT were 0.019 µM and greater than 15 µM, respectively.
The corresponding values for `CC(=O)Nc1cc(-c2[nH]c3c(CO)ccnc3c2-c2cccc(F)n2)ccn1` [Example 275, N-(4-(3-(6-Fluoropyridin-2-yl)-7-(hydroxymethyl)-1H-pyrrolo[3,2-b]pyridin-2-yl)pyridin-2-yl)acetamide] are 0.003 µM and 0.637 µM.
Consider `CC(=O)Nc1cc(-c2[nH]c3c(C)ccnc3c2-c2cccc(C(F)F)n2)ccn1` [Example 216, N-(4-(3-(6-(Difluoromethyl)pyridin-2-yl)-7-methyl-1H-pyrrolo[3,2-b]pyridin-2-yl)pyridin-2-yl)acetamide], for which the IC50 amounted to 0.0013 µM at HIS-TGFβR1 T204D and 3.77 µM at HIS-TGFβR2 WT.
The corresponding values for `COc1cnc2c(-c3ccc(C(F)F)cn3)c(-c3ccnc(NC(C)=O)c3)[nH]c2c1` [Example 110, N-(4-(3-(5-(Difluoromethyl)pyridin-2-yl)-6-methoxy-1H-pyrrolo[3,2-b]pyridin-2-yl)pyridin-2-yl)acetamide] are 0.053 µM and greater than 15 µM.
The corresponding values for `COc1cnc2c(-c3ccc(OC)nc3)c(-c3ccnc(NC(C)=O)c3)[nH]c2c1` [Example 285, N-(4-(6-Methoxy-3-(6-methoxypyridin-3-yl)-1H-pyrrolo[3,2-b]pyridin-2-yl)pyridin-2-yl)acetamide] are 0.002 µM and 0.016 µM.
The corresponding values for `CC(=O)Nc1cc(-c2[nH]c3c(CO)ccnc3c2-c2cccc(Cl)n2)ccn1` [Example 276, N-(4-(3-(6-Chloropyridin-2-yl)-7-(hydroxymethyl)-1H-pyrrolo[3,2-b]pyridin-2-yl)pyridin-2-yl)acetamide] are 0.001 µM and 0.503 µM.
On to `COc1ccc(-c2c(-c3ccnc(NC(C)=O)c3)[nH]c3c(C(=O)NC(CO)CO)cc(Cl)nc23)cn1` [Example 58, 5-Chloro-N-(1,3-dihydroxypropan-2-yl)-2-(2-acetamidopyridin-4-yl)-3-(6-methoxypyridin-3-yl)-1H-pyrrolo[3,2-b]pyridine-7-carboxamide], for which the IC50 worked out at 0.017 µM on HIS-TGFβR1 T204D and 9.23 µM on HIS-TGFβR2 WT.
The corresponding values for `COc1ccc(-c2c(-c3ccnc(NC(C)=O)c3)[nH]c3cc(F)cnc23)nc1` [Example 39, N-{4-[6-Fluoro-3-(5-methoxypyridin-2-yl)-1H-pyrrolo[3,2-b]pyridin-2-yl]pyridin-2-yl}acetamide] are 0.002 µM and greater than 15 µM.
`CNCc1cnc2c(-c3ccc(OC)cn3)c(-c3ccnc(NC(C)=O)c3)[nH]c2c1` [Example 293, N-(4-(3-(5-Methoxypyridin-2-yl)-6-((methylamino)methyl)-1H-pyrrolo[3,2-b]pyridin-2-yl)pyridin-2-yl)acetamide]: the IC50 on HIS-TGFβR1 T204D was 0.016 µM; at HIS-TGFβR2 WT, greater than 15 µM.
Take `CC(=O)Nc1cc(-c2[nH]c3c(CN4CCOCC4)ccnc3c2-c2cccc(C(F)F)n2)ccn1` [Example 140, N-(4-{3-[6-(Difluoromethyl)pyridin-2-yl]-7-(morpholin-4-ylmethyl)-1H-pyrrolo[3,2-b]pyridin-2-yl}pyridin-2-yl)acetamide]: the IC50 on HIS-TGFβR1 T204D amounted to 0.001 µM; on HIS-TGFβR2 WT it was 7.6 µM.
The corresponding values for `COc1ccc(-c2c(-c3ccnc(NC(C)=O)c3)[nH]c3cc(-c4c(C)nnn4C)cnc23)nc1` [Example 94, N-{4-[6-(Dimethyl-1H-1,2,3-triazol-5-yl)-3-(5-methoxypyridin-2-yl)-1H-pyrrolo[3,2-b]pyridin-2-yl]pyridin-2-yl}acetamide] are 0.004 µM and greater than 15 µM.
The corresponding values for `COc1ccc(-c2c(-c3ccnc(NC(C)=O)c3)[nH]c3ccc(F)nc23)nc1` [Example 37, N-{4-[5-Fluoro-3-(5-methoxypyridin-2-yl)-1H-pyrrolo[3,2-b]pyridin-2-yl]pyridin-2-yl}acetamide] are 0.002 µM and greater than 15 µM.
The corresponding values for `CC(=O)Nc1cc(-c2[nH]c3cccnc3c2-c2cc(C)cc(Cl)n2)ccn1` [Example 30, N-{4-[3-(6-Chloro-4-methylpyridin-2-yl)-1H-pyrrolo[3,2-b]pyridin-2-yl]pyridin-2-yl}acetamide] are 0.32 µM and 0.49 µM.
For `O=C(CO)Nc1cc(-c2[nH]c3cc(Cl)cnc3c2-c2ccc(F)cn2)ccn1` [Example 72, N-{4-[6-Chloro-3-(5-fluoropyridin-2-yl)-1H-pyrrolo[3,2-b]pyridin-2-yl]pyridin-2-yl}-2-hydroxyacetamide], the IC50 at HIS-TGFβR1 T204D was 0.008 µM; on HIS-TGFβR2 WT it was 1.55 µM.
The corresponding values for `CC(=O)Nc1cc(-c2[nH]c3c([C@@H](C)O)ccnc3c2-c2cccc(C(F)F)n2)ccn1` (single isomer, unassigned) [Example 146] are 0.001 µM and 1.78 µM.
Regarding `CC(=O)Nc1cc(-c2[nH]c3cccnc3c2-c2csc(C)n2)ccn1` [Example 211, N-(4-(3-(2-Methylthiazol-4-yl)-1H-pyrrolo[3,2-b]pyridin-2-yl)pyridin-2-yl)acetamide], the concentration for half-maximal inhibition (IC50) on HIS-TGFβR1 T204D was determined as 0.0049 µM; at HIS-TGFβR2 WT, 1.04 µM.
